{"source": "patent US9745334B2", "about": "“Cytotoxic-drug delivering molecules targeting HIV (CDM-Hs), cytotoxic activity against the human immunodeficiency virus and methods of use” (YALE UNIVERSITY, priority 2012, dated 2017)", "key": {"[1]": {"test_system": "CHO-pSV (gp120−) cells", "experiment": "Cell cytotoxicity assay (CellTiter Glo), CHO-pSV", "type": "cell-based", "details": "14 h incubation; concentrations as high as 67 μM", "method": "(§1) Wild-type HIV-1 env expressing CHO-env cells and CHO-pSv (env negative isogenic control) were a gift from Dr. Edward Berger (NIH), however, they were developed by Nicholas and coworkers.^55 CHO-pSv cells were grown in DMEM base media described below while CHO-env cells were grown in selection medium, which consists of base medium containing 0.25 μM methotrexate (MTX, Aldrich). *Note: Decrease in envelope expression in CHO-env cells was observed upon several passages and it is recommended to maintain low passage stocks of cells in liquid nitrogen.\n(§2) Cell Cytotoxicity Assay (CellTiter Glo)\n(§3) ***Note: all incubations and dilutions in CHO-culture media (+MTX for CHO-env)\n(§4) ***All incubations performed in 96-well plates (clear bottom, black sides; Costar#3603) in triplicate at 37° C., 5% CO2 in moist environment.\n(§5) Confluent (˜80%) T-75 flasks of CHO-env and/or CHO-pSv were washed once with DPBS (3 mL), detached, counted and then centrifuged. […]\n(§6) Serial dilutions (1/6) of molecules made in empty 96-well plates using multichannel pipette, and then transferred to plates containing seeded cells (50 μL). […] Luminescence monitored on Biotek Synergy 2 microplate reader.\n(§7) % cytotoxicity above background calculated by the following formulas: % CDC=[100−((sample−max kill)/(no molecule−max kill))*100] […]"}, "[2]": {"test_system": "CHO-env (gp120+) cells", "experiment": "Cell cytotoxicity assay (CellTiter Glo), CHO-env", "type": "cell-based", "details": "14 h; at 310 nM and 1.85 μM", "method": "as §1, §2, §3, §4, §5, §6, §7"}}, "data": [{"smiles": "COc1cccc2c1C(=O)c1c(O)c3c(c(O)c1C2=O)C[C@@](O)(C(=O)CO)C[C@@H]3O[C@H]1C[C@H](N)[C@H](O)[C@H](C)O1", "note": "[doxorubicin]", "values": [{"measurement": "non-specific cytotoxicity", "setting": "[1]", "value": "non-specifically toxic"}, {"measurement": "toxicity at low concentrations", "setting": "[2]", "value": "no toxicity was observed"}]}]}
